In ChEMBL document CHEMBL1142058, “Amorphane sesquiterpenes from a marine Streptomyces sp” (J Nat Prod, 2007):
The source made the active and inactive calls.

How the values were obtained:
Type in all cases: functional, organism-based
Artemia = experiment: Activity against brine shrimp at 10 ug/mL
Escherichia coli = experiment: Antibacterial activity against Escherichia coli at 80 ug/disk
Desmodesmus subspicatus = experiment: Antimicrobial activity against Scenedesmus subspicatus at 80 ug/disk
Staphylococcus aureus = experiment: Antibacterial activity against Staphylococcus aureus at 80 ug/disk
[1] = tested on: Streptomyces viridochromogenes; experiment: Antibacterial activity against Streptomyces viridochromogenes Tu 57 at 80 ug/disk
Chlorella vulgaris = experiment: Antimicrobial activity against Chlorella vulgaris at 80 ug/disk
Candida albicans = experiment: Antifungal activity against Candida albicans at 80 ug/disk
Rhizomucor miehei = experiment: Antifungal activity against Mucor miehei at 80 ug/disk
Bacillus subtilis = experiment: Antibacterial activity against Bacillus subtilis at 80 ug/disk
Chlorella sorokiniana = experiment: Antimicrobial activity against Chlorella sorokiniana at 80 ug/disk

Measured: Activity

C[C@H]1C(=O)C[C@H]2[C@@H](C1O)[C@@H](C(C)(C)O)CC[C@@]2(C)O (stereo not given in full)
inactive: all assays above

CC1=C[C@H]2[C@@H](C(C)(C)O)CC[C@@](C)(O)[C@H]2CC1
inactive: all assays above

CC(C)[C@H]1CC[C@@](C)(O)[C@H]2CC(=O)C(CO)=C[C@@H]12
inactive: all assays above

CC1=C[C@H]2[C@@H](C(C)C)CC[C@@](C)(O)[C@H]2CC1=O
inactive: all assays above
